Measurements: ChEMBL document CHEMBL5537136 (J Med Chem, 2024)
Calls of active or inactive are those of the source. No cut-off for these calls is given here.

Legend:
[1] = Toxicity in Balb/c mouse bearing mouse CT26 cells assessed as morphological changes in liver at 6.25 to 25 mg/kg, IG measured after 14 days by hematoxylin and eosin staining based assay; assay type: organism-based; settings: in vivo, po, 336 h, dose 6.25-25 mg/kg, time 14 day
[2] = target: T1, Protein mono-ADP-ribosyltransferase PARP11 (Homo sapiens, UniProt Q9NR21); experiment: Inhibition of PARP11 (unknown origin) measured after 1 hr incubation by microplate reader assay
T1 sequence (Q9NR21 whole entry): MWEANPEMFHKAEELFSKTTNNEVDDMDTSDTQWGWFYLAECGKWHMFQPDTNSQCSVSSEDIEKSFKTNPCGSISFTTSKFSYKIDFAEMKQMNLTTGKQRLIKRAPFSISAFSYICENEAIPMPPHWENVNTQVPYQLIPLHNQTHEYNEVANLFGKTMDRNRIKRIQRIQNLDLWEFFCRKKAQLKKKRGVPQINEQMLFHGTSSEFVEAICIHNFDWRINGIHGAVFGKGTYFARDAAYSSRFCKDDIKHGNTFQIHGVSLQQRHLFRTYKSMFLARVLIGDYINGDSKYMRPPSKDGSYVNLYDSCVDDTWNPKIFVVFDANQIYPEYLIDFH

[3] = test system: CT26; experiment: Antitumor activity in immunocompetent mouse CT26 cell bearing Balb/c mouse model assessed as induction of IFN-beta release in tumor tissue at 6.25 to 25 mg/kg, IG treated twice a day measured after 14 days by immunohistochemistry staining based assay; assay type: functional, organism-based; settings: dose lower 6.25 mg/kg, dose upper […], time 14.0 day
[4] = test system: CT26; experiment: Antitumor activity against mouse CT26 cells implanted in Balb/c mouse assessed as increase in infiltration of CD3 positive CD4 positive T lymphocytes in tumors at 25 mg/kg, IG measured after 14 days by flow cytometry; assay type: functional, organism-based; settings: time 14.0 day
[5] = test system: CT26; experiment: Antitumor activity in immunocompetent mouse CT26 cell bearing Balb/c mouse model assessed as reduction in Ki-67 protein expression level in tumor tissue at 6.25 to 25 mg/kg, IG treated twice a day measured after 14 days; assay type: functional, organism-based; settings: dose lower 6.25 mg/kg, dose upper […], time 14.0 day
[6] = target: Cytochrome P450 2C9 (Homo sapiens, UniProt P11712); experiment: Inhibition of CYP2C9 (unknown origin); assay type: ADME
[7] = Toxicity in Balb/c mouse bearing mouse CT26 cells assessed as morphological changes in heart at 6.25 to 25 mg/kg, IG measured after 14 days by hematoxylin and eosin staining based assay; assay type: organism-based; settings: in vivo, po, 336 h, dose 6.25-25 mg/kg, time 14 day
[8] = Cmax in ICR mouse at 10 mg/kg, IG measured upto 24 hrs by LC-MS/MS analysis; assay type: ADME, organism-based; settings: in vivo, po
[9] = Permeability across basolateral to apical side in human Caco-2 cells; assay type: ADME, cell-based
[10] = Half life in ICR mouse at 1 mg/kg, iv measured upto 24 hrs by LC-MS/MS analysis; assay type: ADME, organism-based; settings: in vivo
[11] = test system: CT26; experiment: Antitumor activity against mouse CT26 cells implanted in immunodeficient Balb/c mouse assessed as inhibition of tumor growth at 25 mg/kg, IG twice daily measured after 10 days relative to control; assay type: functional; settings: CT26, po, 240 h, time 10 day, read-out: TGI
[12] = MRT (0 to infinity) in ICR mouse at 1 mg/kg, iv measured upto 24 hrs by LC-MS/MS analysis; assay type: ADME, organism-based; settings: in vivo
[13] = AUC (0 to infinity) in ICR mouse at 10 mg/kg, IG measured upto 24 hrs by LC-MS/MS analysis; assay type: ADME, organism-based; settings: in vivo, po
[14] = Apparent volume of distribution in ICR mouse at 1 mg/kg, iv measured upto 24 hrs by LC-MS/MS analysis; assay type: ADME, organism-based; settings: in vivo, read-out: Vz
[15] = target: Poly [ADP-ribose] polymerase 2 (Homo sapiens, UniProt Q9UGN5); experiment: Inhibition of PARP2 (unknown origin) measured after 1 hr incubation by microplate reader assay
[16] = target: Cytochrome P450 2D6 (Homo sapiens, UniProt P10635); experiment: Inhibition of CYP2D6 (unknown origin); assay type: ADME
[17] = Clearance in ICR mouse at 1 mg/kg, iv measured upto 24 hrs by LC-MS/MS analysis; assay type: ADME, organism-based; settings: in vivo
[18] = target: T2, Protein mono-ADP-ribosyltransferase PARP10 (Homo sapiens, UniProt Q53GL7); experiment: Inhibition of PARP10 (unknown origin) measured after 1 hr incubation by microplate reader assay
T2 sequence (Q53GL7 whole entry): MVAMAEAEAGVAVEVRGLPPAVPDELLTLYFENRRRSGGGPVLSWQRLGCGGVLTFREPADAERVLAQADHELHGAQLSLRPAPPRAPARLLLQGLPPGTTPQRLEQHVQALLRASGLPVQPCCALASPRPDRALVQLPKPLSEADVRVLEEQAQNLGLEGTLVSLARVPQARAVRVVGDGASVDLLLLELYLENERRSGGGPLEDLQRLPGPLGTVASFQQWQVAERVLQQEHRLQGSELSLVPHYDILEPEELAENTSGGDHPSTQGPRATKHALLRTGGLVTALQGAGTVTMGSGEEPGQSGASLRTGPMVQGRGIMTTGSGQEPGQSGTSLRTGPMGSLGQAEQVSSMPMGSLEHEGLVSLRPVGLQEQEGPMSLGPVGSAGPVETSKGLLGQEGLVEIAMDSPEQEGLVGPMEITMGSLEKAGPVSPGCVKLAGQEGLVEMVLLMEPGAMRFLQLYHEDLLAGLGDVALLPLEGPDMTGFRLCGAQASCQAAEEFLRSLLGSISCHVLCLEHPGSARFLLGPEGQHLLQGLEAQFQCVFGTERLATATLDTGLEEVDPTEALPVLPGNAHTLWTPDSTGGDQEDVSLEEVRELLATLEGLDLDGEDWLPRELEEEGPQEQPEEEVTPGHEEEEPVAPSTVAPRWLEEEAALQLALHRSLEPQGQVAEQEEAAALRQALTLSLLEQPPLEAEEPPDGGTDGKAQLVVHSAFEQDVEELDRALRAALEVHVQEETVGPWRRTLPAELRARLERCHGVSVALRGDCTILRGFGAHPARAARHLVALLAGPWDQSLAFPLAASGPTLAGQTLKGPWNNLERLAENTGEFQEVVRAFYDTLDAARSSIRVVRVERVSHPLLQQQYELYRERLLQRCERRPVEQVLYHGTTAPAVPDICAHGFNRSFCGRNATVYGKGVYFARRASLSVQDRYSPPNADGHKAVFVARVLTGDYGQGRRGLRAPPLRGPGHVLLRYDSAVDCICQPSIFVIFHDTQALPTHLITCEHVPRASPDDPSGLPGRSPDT

[19] = Antiproliferative activity against mouse AML12 cells measured after 6 days incubation by MTT assay; assay type: toxicity, cell-based
[20] = test system: CT26; experiment: Induction of anti-tumor immunity in mouse CT26 cells assessed as increase in IFN-beta mRNA expression incubated for 2 days by quantitative real-time PCR analysis; assay type: functional, cell-based; settings: dose 0.04-0.44 µM, time 2.0 day
[21] = test system: CT26; experiment: cells; settings: Mus musculus, CT26, 144 h
[22] = Acute toxicity in ICR mouse assessed as change in body weight at 1000 mg/kg, po measured after 7 days; assay type: organism-based; settings: in vivo, 168 h, time 7 day

Cytochrome P450 2C9, sequence (P11712 whole entry): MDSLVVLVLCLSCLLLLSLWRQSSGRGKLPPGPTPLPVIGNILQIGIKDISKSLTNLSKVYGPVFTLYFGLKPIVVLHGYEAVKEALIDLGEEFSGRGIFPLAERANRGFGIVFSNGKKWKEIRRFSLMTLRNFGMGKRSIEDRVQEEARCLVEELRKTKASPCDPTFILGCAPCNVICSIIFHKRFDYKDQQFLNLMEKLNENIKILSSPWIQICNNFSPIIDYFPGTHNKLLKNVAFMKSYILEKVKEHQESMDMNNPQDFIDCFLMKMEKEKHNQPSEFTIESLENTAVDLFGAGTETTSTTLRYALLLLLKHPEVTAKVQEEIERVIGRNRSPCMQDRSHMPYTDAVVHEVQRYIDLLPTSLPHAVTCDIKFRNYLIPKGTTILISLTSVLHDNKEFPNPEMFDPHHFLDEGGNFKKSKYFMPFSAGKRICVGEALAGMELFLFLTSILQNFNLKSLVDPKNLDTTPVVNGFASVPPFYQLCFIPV
Poly [ADP-ribose] polymerase 2, sequence (Q9UGN5 whole entry): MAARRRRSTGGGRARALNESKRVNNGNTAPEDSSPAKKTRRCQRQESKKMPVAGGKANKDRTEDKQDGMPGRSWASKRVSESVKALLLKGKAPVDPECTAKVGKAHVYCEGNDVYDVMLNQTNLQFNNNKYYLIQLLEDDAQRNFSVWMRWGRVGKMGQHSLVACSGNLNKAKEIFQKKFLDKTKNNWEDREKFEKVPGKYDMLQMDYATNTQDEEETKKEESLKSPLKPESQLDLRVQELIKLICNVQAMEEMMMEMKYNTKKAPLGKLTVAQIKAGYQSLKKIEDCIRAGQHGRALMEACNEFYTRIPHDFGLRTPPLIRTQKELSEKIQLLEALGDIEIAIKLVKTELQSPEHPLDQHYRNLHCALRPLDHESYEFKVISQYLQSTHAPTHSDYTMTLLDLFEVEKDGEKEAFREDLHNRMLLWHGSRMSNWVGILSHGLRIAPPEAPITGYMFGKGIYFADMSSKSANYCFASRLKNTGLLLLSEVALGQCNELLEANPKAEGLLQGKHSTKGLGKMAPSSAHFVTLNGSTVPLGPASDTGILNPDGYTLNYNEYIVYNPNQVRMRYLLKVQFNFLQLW
Cytochrome P450 2D6, sequence (P10635 whole entry): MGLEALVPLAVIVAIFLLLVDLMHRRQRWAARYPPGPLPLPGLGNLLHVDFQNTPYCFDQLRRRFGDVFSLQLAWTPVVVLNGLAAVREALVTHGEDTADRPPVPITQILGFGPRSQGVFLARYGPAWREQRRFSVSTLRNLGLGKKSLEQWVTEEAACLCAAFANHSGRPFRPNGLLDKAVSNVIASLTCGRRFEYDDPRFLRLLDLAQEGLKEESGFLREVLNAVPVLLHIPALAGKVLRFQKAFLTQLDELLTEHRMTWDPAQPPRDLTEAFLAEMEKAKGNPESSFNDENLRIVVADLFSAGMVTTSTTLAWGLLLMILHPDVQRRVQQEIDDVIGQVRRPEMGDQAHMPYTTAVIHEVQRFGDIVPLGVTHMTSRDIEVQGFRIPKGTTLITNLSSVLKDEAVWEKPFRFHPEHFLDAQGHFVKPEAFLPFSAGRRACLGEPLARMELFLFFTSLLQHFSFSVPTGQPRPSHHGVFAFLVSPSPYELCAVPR

With C[C@@H](C(=O)N1CCN(c2ncc(C(F)(F)F)cn2)CC1)n1cc2cccc(C(N)=O)c2n1 the Activity [1] was “Non-Toxic”, the IC50 [2] was over 5 µM and the Activity [3] was “Active”. The Activity [4] was “Active”, the Activity [5] was “Active” and the IC50 [6] was over 30 µM. The Activity [7] was “Non-Toxic”, the Cmax [8] was 7350 ng/mL and the Papp B→A [9] was 20.7 ×10⁻⁶ cm/s. It also gave a half-life [10] of 1.22 h, an inhibition in vivo at 25 mg/kg [11] of 4% and an MRT inf [12] of 1.52 h. For the same compound, the AUC(0-inf) [13] was 17000 ng·h/mL, the Vd [14] was 0.978 L/kg and the IC50 [15] was 0.303 µM. The IC50 [16] was over 30 µM, the clearance [17] was 9.62 mL/min/kg and the IC50 [18] was 0.377 µM. For the same compound, the IC50 at 6 days [19] was over 50 µM, the Activity [20] was “Dose-Dependent Effect” and the IC50 [21] was 16.2 µM. For the same compound, the Activity [22] was “Non-Toxic”.
